Data taken from the NIST ThermoML archive (doi:10.1016/j.jct.2011.11.025).
± gives the expanded uncertainty stated by the source.

Assay: activity coefficient (dimensionless); of the first substance listed, at infinite dilution; xn = mol fraction of the nth substance listed
Settings: Liquid, Chromatography, x1 = 0

SMILES | activity coefficient (318.15 K) | activity coefficient (328.15 K) | activity coefficient (338.15 K) | activity coefficient (348.15 K) | activity coefficient (358.15 K) | activity coefficient (368.15 K)
Cc1ccccc1C [1,2-dimethylbenzene] + CCCCCCn1cc[n+](C)c1.N#C[B-](C#N)(C#N)C#N | 1.19 ± 0.04 | 1.22 ± 0.04 | 1.24 ± 0.04 | 1.26 ± 0.04 | 1.28 ± 0.04 | 1.31 ± 0.05
Cc1cccc(C)c1 [1,3-dimethylbenzene] + CCCCCCn1cc[n+](C)c1.N#C[B-](C#N)(C#N)C#N | 1.36 ± 0.05 | 1.39 ± 0.05 | 1.42 ± 0.05 | 1.44 ± 0.05 | 1.47 ± 0.06 | 1.5 ± 0.06
Cc1ccc(C)cc1 [1,4-dimethylbenzene] + CCCCCCn1cc[n+](C)c1.N#C[B-](C#N)(C#N)C#N | 1.33 ± 0.05 | 1.36 ± 0.05 | 1.39 ± 0.05 | 1.42 ± 0.05 | 1.44 ± 0.05 | 1.47 ± 0.06
C1COCCO1 [1,4-dioxane] + CCCCCCn1cc[n+](C)c1.N#C[B-](C#N)(C#N)C#N | 0.362 ± 0.035 | 0.381 ± 0.034 | 0.401 ± 0.034 | 0.419 ± 0.034 | 0.435 ± 0.033 | 0.454 ± 0.033
C=CCCCCCCCC [1-decene] + CCCCCCn1cc[n+](C)c1.N#C[B-](C#N)(C#N)C#N | 21.5 ± 1 | 20.5 ± 0.9 | 19.3 ± 0.9 | 18.5 ± 0.9 | 17.6 ± 0.8 | 16.9 ± 0.8
C=CCCCCC [1-heptene] + CCCCCCn1cc[n+](C)c1.N#C[B-](C#N)(C#N)C#N | 8.39 ± 0.38 | 8.06 ± 0.37 | 7.79 ± 0.36 | 7.59 ± 0.35 | 7.37 ± 0.34 | 7.24 ± 0.33
C#CCCCCC [1-heptyne] + CCCCCCn1cc[n+](C)c1.N#C[B-](C#N)(C#N)C#N | 2.92 ± 0.13 | 2.93 ± 0.13 | 2.94 ± 0.13 | 2.98 ± 0.14 | 2.99 ± 0.14 | 3.02 ± 0.14
C#CCCCC [1-hexyne] + CCCCCCn1cc[n+](C)c1.N#C[B-](C#N)(C#N)C#N | 2.17 ± 0.1 | 2.19 ± 0.1 | 2.2 ± 0.1 | 2.24 ± 0.1 | 2.26 ± 0.1 | 2.3 ± 0.1
CCC[N+](=O)[O-] [1-nitropropane] + CCCCCCn1cc[n+](C)c1.N#C[B-](C#N)(C#N)C#N |  | 0.497 ± 0.033 | 0.503 ± 0.032 | 0.508 ± 0.032 | 0.511 ± 0.032 | 0.518 ± 0.032
C#CCCCCCC [1-octyne] + CCCCCCn1cc[n+](C)c1.N#C[B-](C#N)(C#N)C#N | 3.99 ± 0.18 | 3.97 ± 0.18 | 3.96 ± 0.18 | 3.98 ± 0.18 | 3.97 ± 0.18 | 3.99 ± 0.18
CC(C)CC(C)(C)C [2,2,4-trimethylpentane] + CCCCCCn1cc[n+](C)c1.N#C[B-](C#N)(C#N)C#N | 18.8 ± 0.9 | 17.6 ± 0.8 | 16.5 ± 0.8 | 15.7 ± 0.7 | 15 ± 0.7 | 14.3 ± 0.7
CCC(C)(C)C [2,2-dimethylbutane] + CCCCCCn1cc[n+](C)c1.N#C[B-](C#N)(C#N)C#N | 10.5 ± 0.5 | 9.96 ± 0.46 | 9.52 ± 0.44 | 9.24 ± 0.42 | 8.92 ± 0.41 | 8.69 ± 0.4
CCOC(C)(C)C [2-ethoxy-2-methylpropane] + CCCCCCn1cc[n+](C)c1.N#C[B-](C#N)(C#N)C#N | 3.51 ± 0.16 | 3.53 ± 0.16 | 3.53 ± 0.16 | 3.58 ± 0.16 | 3.61 ± 0.16 | 3.66 ± 0.17
CCC(C)(C)OC [2-methoxy-2-methylbutane] + CCCCCCn1cc[n+](C)c1.N#C[B-](C#N)(C#N)C#N | 2.19 ± 0.1 | 2.24 ± 0.1 | 2.27 ± 0.1 | 2.33 ± 0.11 | 2.36 ± 0.11 | 2.42 ± 0.11
COC(C)(C)C [2-methoxy-2-methylpropane] + CCCCCCn1cc[n+](C)c1.N#C[B-](C#N)(C#N)C#N | 1.62 ± 0.07 | 1.66 ± 0.07 | 1.71 ± 0.07 | 1.76 ± 0.07 | 1.81 ± 0.08 | 1.87 ± 0.08
CC(C)CO [2-methyl-1-propanol] + CCCCCCn1cc[n+](C)c1.N#C[B-](C#N)(C#N)C#N | 1.44 ± 0.05 | 1.31 ± 0.05 | 1.2 ± 0.1 | 1.11 ± 0.03 | 1.04 ± 0.03 | 0.977 ± 0.025
CC(C)(C)O [2-methylpropan-2-ol] + CCCCCCn1cc[n+](C)c1.N#C[B-](C#N)(C#N)C#N | 1.2 ± 0.04 | 1.11 ± 0.03 | 1.04 ± 0.03 | 0.988 ± 0.025 | 0.951 ± 0.026 | 0.914 ± 0.026

SMILES | activity coefficient (318.15 K) | activity coefficient (328.15 K) | activity coefficient (338.15 K) | activity coefficient (348.15 K) | activity coefficient (358.15 K) | activity coefficient (368.15 K)
CCC(C)CC [3-methylpentane] + CCCCCCn1cc[n+](C)c1.N#C[B-](C#N)(C#N)C#N | 10.5 ± 0.5 | 9.96 ± 0.46 | 9.5 ± 0.44 | 9.15 ± 0.42 | 8.81 ± 0.4 | 8.6 ± 0.39
C=C(C)c1ccccc1 [(1-methylethenyl)benzene] + CCCCCCn1cc[n+](C)c1.N#C[B-](C#N)(C#N)C#N |  | 1.2 ± 0.04 | 1.26 ± 0.04 | 1.3 ± 0.04 | 1.34 ± 0.05 | 1.38 ± 0.05
CC(=O)O [acetic acid] + CCCCCCn1cc[n+](C)c1.N#C[B-](C#N)(C#N)C#N |  | 0.285 ± 0.036 | 0.298 ± 0.036 | 0.311 ± 0.035 | 0.323 ± 0.035 | 0.335 ± 0.035
CC(C)=O [acetone] + CCCCCCn1cc[n+](C)c1.N#C[B-](C#N)(C#N)C#N | 0.335 ± 0.035 | 0.344 ± 0.035 | 0.354 ± 0.035 | 0.363 ± 0.035 | 0.372 ± 0.034 | 0.381 ± 0.034
CC#N [acetonitrile] + CCCCCCn1cc[n+](C)c1.N#C[B-](C#N)(C#N)C#N | 0.387 ± 0.034 | 0.391 ± 0.034 | 0.394 ± 0.034 | 0.396 ± 0.034 | 0.398 ± 0.034 | 0.4 ± 0.034
c1ccccc1 [benzene] + CCCCCCn1cc[n+](C)c1.N#C[B-](C#N)(C#N)C#N | 0.733 ± 0.029 | 0.743 ± 0.029 | 0.758 ± 0.029 | 0.773 ± 0.028 | 0.783 ± 0.028 | 0.8 ± 0.028
CCCCO [butan-1-ol] + CCCCCCn1cc[n+](C)c1.N#C[B-](C#N)(C#N)C#N | 1.43 ± 0.05 | 1.32 ± 0.05 | 1.22 ± 0.04 | 1.14 ± 0.03 | 1.07 ± 0.03 | 1.01 ± 0.03
CCC(C)O (stereo unspecified) [butan-2-ol] + CCCCCCn1cc[n+](C)c1.N#C[B-](C#N)(C#N)C#N | 1.27 ± 0.04 | 1.17 ± 0.04 | 1.1 ± 0.1 | 1.03 ± 0.03 | 0.977 ± 0.025 | 0.938 ± 0.026
CCCC=O [butanal] + CCCCCCn1cc[n+](C)c1.N#C[B-](C#N)(C#N)C#N | 0.512 ± 0.032 | 0.523 ± 0.032 | 0.539 ± 0.032 | 0.554 ± 0.032 | 0.564 ± 0.032 | 0.579 ± 0.031
C1CCCCCC1 [cycloheptane] + CCCCCCn1cc[n+](C)c1.N#C[B-](C#N)(C#N)C#N | 7.96 ± 0.37 | 7.46 ± 0.34 | 7.07 ± 0.32 | 6.76 ± 0.31 | 6.45 ± 0.3 | 6.21 ± 0.28
C1CCCCC1 [cyclohexane] + CCCCCCn1cc[n+](C)c1.N#C[B-](C#N)(C#N)C#N | 6.52 ± 0.3 | 6.15 ± 0.28 | 5.85 ± 0.27 | 5.58 ± 0.26 | 5.38 ± 0.25 | 5.21 ± 0.24
C1=CCCCC1 [cyclohexene] + CCCCCCn1cc[n+](C)c1.N#C[B-](C#N)(C#N)C#N | 3.48 ± 0.16 | 3.38 ± 0.15 | 3.27 ± 0.15 | 3.25 ± 0.15 | 3.17 ± 0.14 | 3.14 ± 0.14
C1CCCCCCC1 [cyclooctane] + CCCCCCn1cc[n+](C)c1.N#C[B-](C#N)(C#N)C#N | 9.94 ± 0.46 | 9.29 ± 0.43 | 8.75 ± 0.4 | 8.33 ± 0.38 | 7.9 ± 0.36 | 7.57 ± 0.35
C1CCCC1 [cyclopentane] + CCCCCCn1cc[n+](C)c1.N#C[B-](C#N)(C#N)C#N | 4.65 ± 0.21 | 4.45 ± 0.2 | 4.28 ± 0.2 | 4.14 ± 0.19 | 4.02 ± 0.18 | 3.93 ± 0.18
CCCCCCCCCC [decane] + CCCCCCn1cc[n+](C)c1.N#C[B-](C#N)(C#N)C#N | 43.6 ± 2 | 40 ± 1.9 | 36.4 ± 1.7 | 33.8 ± 1.6 | 31.3 ± 1.5 | 29.3 ± 1.4
CCOCC [diethyl ether] + CCCCCCn1cc[n+](C)c1.N#C[B-](C#N)(C#N)C#N | 1.59 ± 0.06 | 1.62 ± 0.07 | 1.64 ± 0.07 | 1.68 ± 0.07 | 1.71 ± 0.07 | 1.76 ± 0.07
CC(C)OC(C)C [diisopropyl ether] + CCCCCCn1cc[n+](C)c1.N#C[B-](C#N)(C#N)C#N | 3.68 ± 0.17 | 3.71 ± 0.17 | 3.75 ± 0.17 | 3.8 ± 0.17 | 3.82 ± 0.17 | 3.87 ± 0.18
